Measurements taken from patent publication US20080269202A1, “Novel 2,3-benzodiazepine derivatives and their use as antipsychotic agents” (Teva Pharmaceutical Industries Ltd., priority 2007, published 2008).
Read-outs that look alike come from different tables or passages of the source. Each block holds one compound with its values, some of them ahead of it.

What was measured:
[1] = system: DOPA accumulation in eminentia mediana; test: DOPA accumulation in eminentia mediana after NSD-1015; type: in vivo, Sprague-Dawley rats; conditions: for DOPA levels (pmol/mg prot): rat eminentia mediana, mean ± SEM
Method: Acute administration of atypical antipsychotics results in enhanced accumulation of dihydroxyphenylalanine (DOPA) in the […] after the inhibition of DOPA decarboxylase. In contrast, DOPA accumulation is not altered by the typical antipsychotics (Andersson, G, Albinsson, A, Pettersson, G, Arzneimittelforschung. 1990, 40, 237; Gudelsky, G. A., Meltzer, H. Y. Neuropsychopharmacology, 1989, 2, 45). The effect of the compound of Example 121 on DOPA-accumulation was measured by analyzing the levels of DOPA in […]. […] (EM), were dissected out from the brains on ice-cold plates and kept at -70° C. until they were assayed for DOPA by HPL-EC. Statistical analysis was carried out using one-way ANOVA followed by Duncan test.

[2] = system: apomorphine-induced climbing; test: apomorphine-induced climbing test in mice; type: in vivo, CD1 mice; conditions: for ED50: Mus musculus, read-out: Climbing ED50 (mg/kg ip.)
Method: (§1) Anti-apomorphine effects were investigated in the climbing test in mice mediated through the mesolimbic and stereotypy test in rats mediated through the nigrostriatal system. Conventional antipsychotics antagonize both apomorphine-induced behaviours, while known atypical antipsychotics are weaker against apomorphine stereotypy.
The climbing test was carried out according to Protais et al. (Protais, P. et al. Psychopharmacologia, 1976, 50, 1.) Stereotyped behavior was induced in food deprived (for 16 hours) male CD1 mice weighing 20-25 g body by apomorphine HCl (SIGMA) in a s.c. dose of 2 mg/kg. Mice were placed individually into cylinders having 12 cm diameter and consisting of vertical bars of 2 mm diameter where apomorphine treated animals tended to adopt a vertical position in contrary to vehicle treated controls. Test substances were applied ip. 30 min before apomorphine.
10 and 20 min after apomorphine treatment the climbing behaviour was evaluated by scores of 0-2. 10 mice/group were used. The scores of the two readings were summed individually, meaned and compared to the control. The ED50 values were calculated by Litchfield-Wilcoxon's method (Litchfield Jr. J. T., Wilcoxon, F. J. Pharmacol. Exp. Ther. 1949, 96, 49,).

[3] = system: apomorphine-induced stereotyped behavior; test: apomorphine-induced stereotypy; type: in vivo, CD1 mice; conditions: for ED50: Mus musculus, read-out: Stereotypy ED50 (mg/kg po.)
Description: as §1
Apomorphine-induced stereotypy was investigated according to Costall and Naylor (B. Costall and R. J. Naylor, Eur. J. Pharmacol. 1972, 18, 95) in male CD1 mice of 20-25 g body weight after 16 hours deprivation of food. 30 min before treatment mice were individually placed into small, transparent acrylic cages for habituation. Test substances were administered orally in a volume of 0.1 ml/10 g. 30 min later mice were treated with apomorphine HCl (SIGMA) in a subcutaneous dose of 2 mg/kg. […] The scores were summed individually, meaned and compared to the control group. The ED50 values were calculated by Litchfield-Wilcoxon's method (J. Pharmacol. Exp. Ther. 1949, 96, 49,).

[4] = system: catalepsy; test: catalepsy test in rats; type: in vivo, CDBR rats; conditions: for Catalapsy scores: dose 10 mg/kg ip, sum of 8 readings over 4 hours; for cataleptogenic potential: intraperitoneal, result in words
Description: In order to investigate the potential side effect profile, the catalepsy test in rats has been carried out according to Costall and Naylor (Costall, B., Naylor, R. J. Arzneimittelforschung/Drug Res., 1973, 23, 674).
Catalepsy is defined as a failure to correct an externally imposed, unusual posture over a prolonged time. Neuroleptics which have direct inhibitory action on the nigrostriatal dopamine system induce catalepsy. It may be reflected by the Parkinson-like extrapyramidal symptoms seen clinically with administration of classical antipsychotics. The experiments were carried out in male CDBR rats weighing 300-400 g. The volume of administration was 0.25 ml/100 g body weight. The animals were starved for 16 hours before treatment, water was delivered ad libitum. After intraperitoneal administration of the test substances, the forepaws of the rats were placed on a horizontal stainless steel bar elevated to 10 cm high, while the hind paws remained on a metal plate. The semi-automatic 5-channel catalepsy meter measured the time spent in this unusual posture by an electronic stop-clock. The catalepsy time was scored from 0 to 5 according to the time spent in the unusual posture. […] Means of groups were calculated.

[5] = system: PCP-induced hypermotility; test: PCP-induced hypermotility (motor activity meter) in mice; type: in vivo; conditions: Mus musculus, read-out: PCP-hypermotility ED50 mg/kg po.
Description: (§2) Alterations in the mesocortical dopaminergic tract are thought to be responsible for the negative symptoms of schizophrenia (flattening of affect, poverty of speech, lack of volition and drive, loss of feeling, social withdrawal and decreased spontaneous movement). The best animal model of these symptoms is the behavioral changes induced by PCP (phencyclidine). The PCP-induced stereotypy and hypermotility was investigated in mice according to Ljungberg and Ungerstedt (Ljungberg, T., Ungerstedt, U. Pharmacol. Biochem. Behav., 1985, 23, 479,) and Jawitt (Jawitt, D. C. Amer. J. Psychiatry, 1991, 145, 1301). The stereotypy experiments were carried out in male CD1 mice weighing 20-25 g. The animals were starved for 16 hours before treatment without limitation of water availability. In the stereotypy studies, 30 min before treatment, mice were individually placed into small, transparent acrylic cages for habituation. Test substances were administered orally in a volume of 0.1 ml/10 g. 30 min later mice were treated with PCP with an intraperitoneal dose of 7 mg/kg. Stereotyped behavior was observed every 5th min for 60 min and scored from 0 to 4. The scores were summed individually, averaged and compared to the control group.
The motor activity was measured in a 4-channel activity meter. The apparatus consisted of acrylic cages (40×40×32 cm) equipped with 16 pairs of infrared photocells. The photocells' beam, when broken, signaled a count, which was then recorded by a computer. A 5 mg/kg intraperitoneal dose of PCP was administered 5 min before the experiment. This dose of PCP induces 110-120% increase of the spontaneous motor activity. Test substances were administered orally 15 min before experiment, and mice were investigated individually in the experimental cages for 60 min. 10 mice/group were used. The total counts for each experimental group were compared to the vehicle treated control group.
(§3) In both studies the ED50 values were calculated by the Litchfield-Wilcoxon's method (J. Pharmacol. Exp. Ther. 1949, 96, 49).

[6] = system: conditioned avoidance responses; test: conditioned avoidance: pole jumping test in rats; type: in vivo, Long-Evans rats
Description: For measuring the antipsychotic potential in a non-perturbed dopamine system the pole jumping assay was used (Cook, L., Catania, A. C. Fed. Proc. 1964, 23, 818.)
This method is an active avoidance learning test. Long-Evans rats, weighing 250-450 g, were used in the experiments. Rats are placed in a box (25×25×25 cm) on a grid floor in the center of which there is a pole. After a latency period, light is turned on for a given time then the floor is electrified to deliver an unpleasant footshock. Rats may learn to avoid the shock by jumping up to grasp the pole. As soon as the rat jumps up the light and shock are turned off. Each light-on period lasted for 15 s, shock time for 30 s with an intertrial interval of 15 s. 30 such trials per day were repeated during the learning period until animals reach a minimum of 80% avoidance rate. During the experimental sessions 20 trials/day were run. Test substances were administered ip. in a volume of 0.25 ml/100 g body weight. Significances were calculated by Student's t test.

[7] = system: PCP-induced stereotypy; test: PCP-induced stereotypy in mice; type: in vivo, CD1 mice; conditions: Mus musculus, read-out: PCP-stereotypy ED50 mg/kg po.
Description: as §2, §3

[8] = system: PCP-induced locomotion; test: PCP induced locomotor activity test (open field); type: in vivo, mice; conditions: all doses (3, 7, 14, 28, 40 mg/kg) by gavage, PCP 5 mg/kg, vs vehicle
Method: The effects of compounds 121 and 183, administered orally, were also evaluated in the PCP induced locomotor activity test. Compound 121 was designated as “Compound A” and Compound 183 was designated as “Compound B” for purposes of this study. In general, the study aimed to test Compounds A and B for potential antipsychotic activity in PCP treated mice.
Compounds A & B were dissolved in 3% Tween: Compound A: 1, 3, 6, 10, and 15 mg/kg; Compound B: 3, 7, 14, 28, and 40 mg/kg; Compounds A+B were administered by gavage.
PCP (5 mg/kg) was dissolved in sterile injectable water.
The open field (“OF”) test assessed both anxiety and locomotor behavior. The open field chambers are Plexiglas square chambers (27.3×27.3×20.3 cm; Med Associates Inc., St Albans, Vt.) surrounded by infrared photobeams (16×16×16) to measure horizontal and vertical activity. The analysis was configured to divide the open field into a center and periphery zone. Distance traveled was measured from horizontal beam breaks as the mouse moved whereas rearing activity was measured from vertical beam breaks.
Mice were brought to the activity experimental room for at least 1 hr acclimation to the experimental room conditions prior to testing. […]
Data was analyzed to show baseline activity (activity during the 30 min prior to PCP injection) and PCP-induced activity (activity during the 60 min after PCP injection).

[9] = system: PCP-induced disruption of PPI; test: PCP-induced disruption of pre-pulse inhibition (PPI); conditions: for reversal of PCP-induced disruption of PPI: PCP 8 mg/kg, C57B1/6J mice
Description: Male C57B1/6J mice from Jackson Laboratories (Bar Harbor, Me.) were used in this study. Mice were received at 6-weeks of age. Upon receipt, mice were assigned unique identification numbers (tail marked) and were group housed in OPTImice cages. All animals remained housed in groups of four during the remainder of the study. […] During the period of acclimation, mice were examined on a regular basis, handled, and weighed to assure adequate health and suitability. Mice were maintained on a 12/12 light/dark cycle with the light on at 6:00 a.m. The room temperature was maintained between 20 and 23° C. with a relative humidity maintained between 30% and 70%. Food and water were provided ad libitum for the duration of the study. In each test, animals were randomly assigned across treatment groups.
All compounds were injected i.p. at a dose volume of 10 ml/kg. […] Phenylcyclohexylpiperidine (PCP) (8 mg/kg) was dissolved in sterile water.
The acoustic startle measured an unconditioned reflex response to external auditory stimulation. […] Mice were placed in the PPI chambers (Med Associates) for a 5 min session of white noise (70 dB) habituation.
After the acclimation period the test session was automatically started. The session started with a habituation block of 6 presentations of the startle stimulus alone, followed by 10 PPI blocks of 6 different types of trials. Trial types are: null (no stimuli), startle (120 dB), startle plus prepulse (4, 8 and 12 dB over background noise i.e. 74, 78 or 82 dB) and prepulse alone (82 dB). Trial types were presented at random within each block.
Each trial started with a 50 ms null period during which baseline movements were recorded. There was a subsequent 20 ms period during which prepulse stimuli were presented and responses to the prepulse measured. After further 100 ms the startle stimuli were presented for 40 ms and responses recorded for 100 ms from startle onset. Responses were sampled every ms. The inter-trial interval was variable with an average of 15 s (range from 10 to 20 s). In startle alone trials the basic auditory startle was measured and in prepulse plus startle trials the amount of inhibition of the normal startle was determined and expressed as a percentage of the basic startle response (from startle alone trials), excluding the startle response of the first habituation block.
Data were analyzed by analysis of variance (ANOVA) followed by post-hoc comparisons with Fisher Tests when appropriate. An effect was considered significant if p<0.05. Data are represented as the mean and standard error to the mean.

[10] = mice, ip. 30 min before apomorphine 2 mg/kg s.c.

SMILES: CN(C)CCCN1c2ccccc2Sc2ccc(Cl)cc21 [Chlorpromazine, reference compound]
- DOPA levels (pmol/mg prot) ([1]; 10 mg/kg ip, NSD-1015 90 min after treatment): 56.4 ± 4.1 pmol/mg prot
- effect on levels of DOPA in the EM of rats ([1]; result in words, vs saline): had no effect
- ED50 [2, 10]: 1.2 mg/kg
- inhibition of apomorphine-induced climbing ([2]; mice, result in words): inhibited both behaviors
- ED50 ([3]; mice, po. 30 min before apomorphine 2 mg/kg s.c.): 3.6 mg/kg
- inhibition of apomorphine-induced stereotyped behavior ([3]; mice, result in words): inhibited both behaviors
- Catalapsy scores [4]: 10:8.7
- cataleptogenic potential [4]: induces severe catalepsy
- ED50 ([5]; mice, po. 15 min before experiment, PCP 5 mg/kg ip): 1.86 mg/kg

SMILES: CN1CCN(C2=Nc3cc(Cl)ccc3Nc3ccccc32)CC1 [Clozapine, reference compound]
- DOPA levels (pmol/mg prot) ([1]; 20 mg/kg ip): 87.4 ± 9.5 pmol/mg prot
- ED50 [2]: 2.64 mg/kg
- ED50 [3]: 22.9 mg/kg
- Catalapsy scores [4]: 10:0.14
- cataleptogenic potential [4]: lack cataleptogenic potential
- MED (mg/kg ip), minimal effective dose (stat. sign.) [6]: 2 mg/kg
- ED50 [7]: 3.76 mg/kg
- ED50 [5]: 1.81 mg/kg

More lines, main results first:

- melting point: 229 to 230 °C
SMILES: COc1cc2c(cc1OC)C(c1ccc(N)cc1)=NN(c1nccs1)[C@H](C)C2 [Example 112]
- ED50 [2, 10]: 25 mg/kg

- melting point: 156 to 158 °C
SMILES: COc1cc2c(cc1OC)C(c1ccc(NC(C)=O)cc1)=NN(c1nccs1)[C@H](C)C2 [Example 183]
- ED50 [2, 10]: 8.7 mg/kg
- effect on PCP induced locomotion [8]: significantly decreased
- sedation and lethargy in the mice ([9]; 15 mg/kg i.p. (high dose)): caused sedation and lethargy
- reversal of PCP-induced disruption of PPI ([9]; 5, 10, and 15 mg/kg i.p.): significantly reversed
- reversal of PCP-induced disruption of PPI ([9]; all doses (1.5, 5, 10, 15 mg/kg) i.p.): significantly reversed

- melting point: 160 to 162 °C
SMILES: CNC(=O)Nc1ccc(C2=NN(c3nncs3)C(C)Cc3cc(OC)c(OC)cc32)cc1 (centres unmarked) [Example 191]
